# Results: US6841680B2, “N-type calcium channel antagonists for the treatment of pain” (AstraZeneca AB, priority 2000, dated 2005)
# System: NK-1 receptor
# Assay: not given
# Details: phenylbenzoquinone-induced writhing and formalin test; Garret et al; cited from earlier work
row,Structure (SMILES),analgesia
1,"COc1ccccc1CC(=N)N1C[C@@H]2C(=O)CCC(c3ccccc3)(c3ccccc3)[C@@H]2C1 [RP 67,580]",produced analgesia with potency comparable to that of morphine

# Target: N-type calcium channel (Homo sapiens, UniProt Q00975)
# Sequence (Q00975 whole entry): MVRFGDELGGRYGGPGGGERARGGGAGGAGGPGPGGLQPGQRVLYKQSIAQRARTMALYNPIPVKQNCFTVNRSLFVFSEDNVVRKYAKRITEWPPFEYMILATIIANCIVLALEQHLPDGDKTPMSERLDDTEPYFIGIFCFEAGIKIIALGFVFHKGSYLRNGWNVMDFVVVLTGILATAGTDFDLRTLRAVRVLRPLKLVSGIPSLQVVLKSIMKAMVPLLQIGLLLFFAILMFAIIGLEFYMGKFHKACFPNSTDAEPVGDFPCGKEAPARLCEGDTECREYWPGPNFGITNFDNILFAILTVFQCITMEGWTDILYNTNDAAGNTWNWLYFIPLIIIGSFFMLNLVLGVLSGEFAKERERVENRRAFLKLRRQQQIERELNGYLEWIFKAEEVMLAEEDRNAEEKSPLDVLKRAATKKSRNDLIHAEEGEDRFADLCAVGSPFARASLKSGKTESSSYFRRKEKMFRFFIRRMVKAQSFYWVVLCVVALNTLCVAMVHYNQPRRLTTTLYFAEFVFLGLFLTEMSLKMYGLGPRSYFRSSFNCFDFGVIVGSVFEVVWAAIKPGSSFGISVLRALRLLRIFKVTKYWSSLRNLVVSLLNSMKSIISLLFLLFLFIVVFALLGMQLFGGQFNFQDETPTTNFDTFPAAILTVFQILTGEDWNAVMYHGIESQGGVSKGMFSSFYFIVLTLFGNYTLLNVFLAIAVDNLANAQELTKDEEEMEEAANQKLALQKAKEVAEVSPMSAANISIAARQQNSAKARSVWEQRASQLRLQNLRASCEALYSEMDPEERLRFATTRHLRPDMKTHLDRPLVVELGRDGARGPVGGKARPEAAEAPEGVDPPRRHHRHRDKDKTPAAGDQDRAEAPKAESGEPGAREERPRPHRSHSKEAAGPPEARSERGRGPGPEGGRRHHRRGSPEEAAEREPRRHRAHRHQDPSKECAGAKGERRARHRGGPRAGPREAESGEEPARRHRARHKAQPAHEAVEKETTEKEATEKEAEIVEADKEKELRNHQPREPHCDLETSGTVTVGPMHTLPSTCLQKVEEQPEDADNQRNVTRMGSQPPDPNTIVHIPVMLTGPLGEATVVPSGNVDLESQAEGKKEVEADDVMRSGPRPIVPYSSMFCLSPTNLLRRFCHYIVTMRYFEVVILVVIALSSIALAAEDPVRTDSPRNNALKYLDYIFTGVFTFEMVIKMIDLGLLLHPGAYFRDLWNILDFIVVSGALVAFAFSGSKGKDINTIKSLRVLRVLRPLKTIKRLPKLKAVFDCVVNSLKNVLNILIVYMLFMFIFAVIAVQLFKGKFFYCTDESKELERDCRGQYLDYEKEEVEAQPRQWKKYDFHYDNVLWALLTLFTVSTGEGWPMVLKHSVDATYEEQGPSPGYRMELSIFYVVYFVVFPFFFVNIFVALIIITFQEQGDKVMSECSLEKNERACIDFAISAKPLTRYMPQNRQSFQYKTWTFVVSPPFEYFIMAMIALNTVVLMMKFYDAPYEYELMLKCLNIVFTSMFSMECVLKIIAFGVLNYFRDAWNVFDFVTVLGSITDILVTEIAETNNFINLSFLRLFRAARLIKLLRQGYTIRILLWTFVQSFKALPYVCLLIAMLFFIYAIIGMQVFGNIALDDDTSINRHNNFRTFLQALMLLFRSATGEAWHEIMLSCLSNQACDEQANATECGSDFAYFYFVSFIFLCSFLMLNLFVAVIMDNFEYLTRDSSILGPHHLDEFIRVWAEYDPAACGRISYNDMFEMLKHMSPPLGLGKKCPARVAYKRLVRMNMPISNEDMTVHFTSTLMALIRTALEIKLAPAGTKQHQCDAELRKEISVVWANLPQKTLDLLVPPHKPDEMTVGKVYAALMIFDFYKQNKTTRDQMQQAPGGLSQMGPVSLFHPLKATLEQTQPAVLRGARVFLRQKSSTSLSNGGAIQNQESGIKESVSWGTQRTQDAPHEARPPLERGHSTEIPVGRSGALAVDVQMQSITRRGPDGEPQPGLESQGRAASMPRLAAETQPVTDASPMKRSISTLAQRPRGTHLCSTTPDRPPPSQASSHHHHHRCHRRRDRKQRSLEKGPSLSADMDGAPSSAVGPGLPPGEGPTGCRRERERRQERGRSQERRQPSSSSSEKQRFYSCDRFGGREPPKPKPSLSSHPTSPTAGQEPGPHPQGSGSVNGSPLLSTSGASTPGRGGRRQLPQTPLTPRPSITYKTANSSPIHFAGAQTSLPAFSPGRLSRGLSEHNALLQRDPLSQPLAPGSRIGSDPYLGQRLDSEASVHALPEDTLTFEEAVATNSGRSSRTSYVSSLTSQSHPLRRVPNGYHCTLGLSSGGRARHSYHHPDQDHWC
# Sequence (P54289 25-1103 partner): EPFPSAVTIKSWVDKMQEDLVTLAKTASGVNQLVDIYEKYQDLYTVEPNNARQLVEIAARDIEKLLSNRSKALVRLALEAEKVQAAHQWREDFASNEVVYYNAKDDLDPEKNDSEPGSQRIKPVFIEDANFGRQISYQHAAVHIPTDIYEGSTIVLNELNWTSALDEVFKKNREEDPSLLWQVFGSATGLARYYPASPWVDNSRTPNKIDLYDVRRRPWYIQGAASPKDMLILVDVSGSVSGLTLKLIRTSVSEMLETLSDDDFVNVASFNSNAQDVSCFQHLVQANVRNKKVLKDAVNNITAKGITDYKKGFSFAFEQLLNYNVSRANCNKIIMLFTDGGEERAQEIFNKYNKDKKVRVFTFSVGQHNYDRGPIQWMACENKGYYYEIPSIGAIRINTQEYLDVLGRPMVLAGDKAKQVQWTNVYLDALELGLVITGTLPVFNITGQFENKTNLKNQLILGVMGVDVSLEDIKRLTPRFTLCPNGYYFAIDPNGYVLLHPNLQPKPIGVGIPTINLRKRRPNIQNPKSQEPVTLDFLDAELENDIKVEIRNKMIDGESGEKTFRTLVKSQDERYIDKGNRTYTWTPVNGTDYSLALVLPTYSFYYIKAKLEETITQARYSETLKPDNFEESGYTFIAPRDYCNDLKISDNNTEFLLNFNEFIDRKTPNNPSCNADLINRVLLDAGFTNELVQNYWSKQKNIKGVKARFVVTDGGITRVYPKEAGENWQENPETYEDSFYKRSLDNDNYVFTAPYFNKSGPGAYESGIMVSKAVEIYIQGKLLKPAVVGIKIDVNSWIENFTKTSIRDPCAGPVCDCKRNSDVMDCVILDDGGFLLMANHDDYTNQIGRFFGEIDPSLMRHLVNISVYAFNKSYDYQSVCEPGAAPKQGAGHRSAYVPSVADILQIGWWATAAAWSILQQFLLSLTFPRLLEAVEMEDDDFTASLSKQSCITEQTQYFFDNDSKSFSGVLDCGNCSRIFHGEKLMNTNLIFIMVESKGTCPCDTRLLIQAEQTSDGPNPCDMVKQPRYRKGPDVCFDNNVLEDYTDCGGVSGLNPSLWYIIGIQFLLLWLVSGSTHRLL
# Sequence (P54284 whole entry partner): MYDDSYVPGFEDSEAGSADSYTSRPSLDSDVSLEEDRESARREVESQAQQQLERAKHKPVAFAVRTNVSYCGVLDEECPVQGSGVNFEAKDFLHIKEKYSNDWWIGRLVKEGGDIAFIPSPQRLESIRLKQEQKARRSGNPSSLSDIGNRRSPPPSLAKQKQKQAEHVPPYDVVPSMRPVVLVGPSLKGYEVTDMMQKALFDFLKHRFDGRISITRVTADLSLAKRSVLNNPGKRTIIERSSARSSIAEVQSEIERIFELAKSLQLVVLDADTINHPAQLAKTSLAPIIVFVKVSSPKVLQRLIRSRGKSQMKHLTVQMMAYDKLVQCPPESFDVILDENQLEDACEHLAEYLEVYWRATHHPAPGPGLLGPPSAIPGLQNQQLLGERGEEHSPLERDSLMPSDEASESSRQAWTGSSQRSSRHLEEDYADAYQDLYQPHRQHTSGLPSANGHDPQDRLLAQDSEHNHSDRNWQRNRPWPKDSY
# Assay: N-Channel FLIPR assay (IMR32 cells, 80 mM K+ evoked calcium flux)
# Type: cell-based
# Details: unit inferred
row,Structure (SMILES),IC50 [µM]
1,"CNc1cc(-c2cccc(F)c2)nc2ccc(-c3ccccc3Cl)cc12 [Example 12, 2-(3-fluorophenyl)-6-(2-chlorophenyl)-4-methylaminoquinoline]",10.5
2,"CNc1cc(-c2cccc(F)c2)nc2ccc(-c3ccccc3C=O)cc12 [Example 15, 2-[2-(3-fluorophenyl)-4-(methylamino)-6-quinolinyl]-benzaldehyde]",5.38
3,"CNc1cc(-c2cccc(F)c2)nc2ccc(-c3ccccc3OC)cc12 [Example 16, 2-(3-fluorophenyl)-6-(2-methoxyphenyl)-4-methylaminoquinoline]",5.78

# Second part, the compound after the results:
row,IC50 [µM],Structure (SMILES)
1,8.82,"CNc1cc(-c2cccc(F)c2)nc2ccc(-c3ccccc3C)cc12 [Example 14, 2-(3-fluorophenyl)-6-(2-methylphenyl)-4-methylaminoquinoline]"
2,8.6,"CNc1cc(-c2cccc(F)c2)nc2ccc(-c3ccccc3)cc12 [Example 13, 2-(3-fluorophenyl)-6-phenyl-4-methylaminoquinoline]"
